Laboratory results reported in patent US20170348258A1, “3-Amino Benzamide Derivative Serving As B-Lactam Auxiliary Antibiotic, Preparation Method and Use Thereof” (THE HONG KONG POLYTECHNIC UNIVERSITY, priority 2014, published 2017).

Legend:
[1] = test system: MRSA strain 2728; assay: FICI of F332 with antibiotics; format: cell-based, S. aureus
[2] = target: T1, B. subtilis FtsZ-eGFP fusion protein (Bacillus subtilis, UniProt P17865); assay: Fluorescence microscopy of FtsZ-eGFP localization; format: cell-based; conditions: 3 μM F332, 4 hours
T1 construct: expressed in transfected cells; host or cells: B. subtilis 168 transformed with pFZ-FtsZ-eGFP
Method: The localization of the filamentation in B. subtilis that induced by F332 was performed by fluorescence microscopy using the cell division protein FtsZ identified by a green fluorescent protein. The expression plasmid of the FtsZ-eGFP fusion protein was constructed as follows (the structure of the plasmid was shown in FIG. 10a).
to amplify the eGFP gene fragment, with about 700 base pairs. Two fragments were ligated by overlap extension PCR method and then digested with endonucleases EcoRI and BamHI. They were ligated into the corresponding cleavage site of pFZ2.0 and transformed into E. coli BL21 (DE3) and screened on chloramphenicol plates to obtain the plasmid pFZ-FtsZ-eGFP. The plasmid extracted was transformed into B. subtilis 168 and grown in LB medium containing chloramphenicol. The expression of FtsZ-eGFP gene was observed by adding different concentrations of lactose or IPTG
The B. subtilis shown in FIGS. 10b and 10c was cultured in the absence of F332.
The B. subtilis shown in FIGS. 10d and 10e was cultured in the presence of F332. […] Thus, the expression of the protein was not only at the position where cell division was performed.

[3] = test system: MRSA strain 1402; assay: FICI of F332 with antibiotics; format: cell-based, S. aureus
[4] = in vivo; conditions: male, Sprague-Dawley, rat
Method: Compound F332 was further subjected to in vivo pharmacokinetic study. The UPLC-MS/MS system consists of an Acquity Waters UPLC interfaced with triple quadrupole mass spectrometer (Micromass model Quattro Ultima) equipped with an electrospray ionization source in positive mode. Chromatographic separation was done on ACQUITY UPLC BEH C18 […] (2.1×50 mm) column. The mobile phase consists of methanol+0.1% formic acid (solvent B) and Milli-Q water+0.1% formic acid (solvent A). Multiple reaction monitoring (MRM) was set monitoring the transitions for F332 [M+H]^+ at 299>142 m/z. The collision energy, cone voltage, source temperature, desolvation temperature and capillary voltage are 25, 30, 150° C., 350° C. and 3 Kv, respectively. The cone gas and desolvation gas was 150 L/Hr and 600 L/Hr, respectively.
Male Sprague-Dawley (SD) rats (body weight 250-280 g) were obtained from Centralised Animal Facilities, The Hong Kong Polytechnic University. Animals were kept in a temperature and humidity controlled environment with 12 hour light-dark cycle with standard diet and water. Animal experiment protocol was approved by the Animal Subjects Ethics Sub-Committee of The Hong Kong Polytechnic University. Right jugular vein cannulation was done one day in advance of the experiment. Animal were fasted overnight and had free access to water throughout the experiment. F332 was freshly prepared in 5% CremophorEL, 5% ethanol, 90% saline at a concentration of 2 mg/ml. F332 was prepared on the day of use and used for animal study within half an hour. In the current study, F332 was administered through passive oral feeding (oral) and intravenous (IV) injection. Blood samples (approx. 500 μL) were collected in heparinzied tubes (20 units of heparin salt/tube) via jugular vein at 5, 10, 30, 45, 60, 120, 240 and 420 minutes post administration for IV study. As for oral study, plasma samples were collected at 2, 10, 30, 45, 60, 120, 240, 480 and 600 minutes. Blood plasma samples were collected by centrifuged at 16,100 G for 10 minutes. For all blood plasma samples, 3 fold volume of methanol was added for protein precipitation. Supernatant was filtered by a syringe filter before UPLC-MS/MS analysis. Pharmacokinetic parameters in plasma were determined by non-compartmental pharmacokinetics data analysis using Pharmacokinetics Solutions 2.0 software (Summit Research Services, Montrose, Colo., USA). The pharmacokinetic parameters determined include maximal plasma concentration (Cmax), time to reach maximal plasma concentration (Tmax), mean residence time (MRT), absorption/distribution half life (t1/2α), elimination half life (t1/2β), volume of distribution (Vd), systemic clearance (CL) and the area under the concentration-time curve (AUC).

[5] = test system: MRSA strain 774; assay: FICI of F332 with antibiotics; format: cell-based, S. aureus
[6] = test system: MRSA strain 757; assay: FICI of F332 with antibiotics; format: cell-based, S. aureus
Method: The bacterial strains used in this study were clinically isolated MRSA strains USA300#757 and #2960 which were obtained from our laboratory. Determination of the Fractional Inhibitory Concentration Index (FICI) was adopted by the Müller-Hinton broth (MHB) dilution method as previously described. Twelve serial two-fold dilutions of PC190723, F332 and F361 were prepared in the 96-well microplate with concentration ranging from 512 to 0.25 μg/mL. […] Lastly, the compounds and the β-lactams were mixed at a 1:1 ratio and subjected to two-fold dilution as described previously. Each microplate well contained 100 μL of MHB supplemented with compounds alone, β-lactams alone or the mixture of compounds and β-lactams. Overnight cultures of S. aureus in the Müller-Hinton broth was diluted to OD595 of 0.08-0.1 in saline and added in each of the microplate well. The plates were incubated at 37° C. for 20 h. All tests were performed in duplicate and the inhibition of bacterial growth was determined by visualization. The FICI of compounds and β-lactams were calculated as followed: FICI=(MIC of combination of compound and β-lactam/MIC of compound alone)+(MIC of combination of compound and β-lactam/MIC of β-lactam alone).

For `CCCCCCCCCNc1ccc(F)c(C(N)=O)c1F` [Compound F332, 2,6-difluoro-3-(nonylamino)benzamide], the “FICI of F332 combined with Amoxicillin” value [1] was 0.08, the “FICI of F332 combined with Cefuroxime” value [1] was 0.14 and the “FICI of F332 combined with Cloxacillin” value [1] was 1.01. For the same compound, the “FICI of F332 combined with Meropenem” value [1] was 2.03, the “FICI of F332 combined with Meticillin” value [1] was 0.16 and the “localization of FtsZ-eGFP in B. subtilis 168 cells” value [2] was “Green fluorescence appeared in multiple parts of B. subtilis cells”. The “FICI of F332 combined with Amoxicillin” value [3] was 1.02, the “FICI of F332 combined with Cefuroxime” value [3] was 0.63 and the “FICI of F332 combined with Cloxacillin” value [3] was 0.75. For the same compound, the “FICI of F332 combined with Meropenem” value [3] was 5.00, the “FICI of F332 combined with Meticillin” value [3] was 0.56 and the AUC ([4]; iv, 1 mg/kg) was 1740 ng·h/mL. The AUC(0-t) ([4]; iv, 1 mg/kg) was 699 ng·h/mL, the MRT ([4]; iv, 1 mg/kg) was 8.08 h and the Vd ([4]; iv, 1 mg/kg) was 4.81 L/kg. The clearance ([4]; iv, 1 mg/kg) was 10 mL/min/kg, the half-life ([4]; iv, 1 mg/kg, Absorption/distribution half life) was 0.25 h and the half-life ([4]; iv, 1 mg/kg, Elimination half life) was 5.82 h. For the same compound, the AUC ([4]; po, 50 mg/kg) was 10400 ng·h/mL, the AUC(0-t) ([4]; po, 50 mg/kg) was 8980 ng·h/mL and the “CL (area)/kg” value ([4]; po, 50 mg/kg) was 80 mL/min/kg. For the same compound, the Cmax ([4]; po, 50 mg/kg) was 1920 ng/mL, the MRT ([4]; po, 50 mg/kg) was 4.82 h and the Tmax ([4]; po, 50 mg/kg) was 2 h. The “Vd (area)/kg” value ([4]; po, 50 mg/kg) was 20.916 L/kg, the half-life ([4]; po, 50 mg/kg) was 3 h and the half-life ([4]; po, 50 mg/kg, Absorption/distribution half life) was 0.35 h. For the same compound, the bioavailability ([4]; po, 50 mg/kg, Bioavailability) was ~12%, the “FICI of F332 combined with Amoxicillin” value [5] was 0.03 and the “FICI of F332 combined with Cefuroxime” value [5] was 0.01. The “FICI of F332 combined with Cloxacillin” value [5] was 0.50, the “FICI of F332 combined with Meropenem” value [5] was 0.13 and the “FICI of F332 combined with Meticillin” value [5] was 0.26. The “FICI of F332 combined with Amoxicillin” value [6] was 0.27, the “FICI of F332 combined with Cefuroxime” value [6] was 0.08 and the “FICI of F332 combined with Cloxacillin” value [6] was 0.13. For the same compound, the “FICI of F332 combined with Meropenem” value [6] was 1.06 and the “FICI of F332 combined with Meticillin” value [6] was 0.09.
